Measured values as given in patent publication US12303592B2, “Formulations for parenteral delivery of compounds and uses thereof” (Wyeth, LLC, priority 2006, dated 2025).

Experiment: Stopper compatibility evaluation (Table 14), HPLC Method A; on RRT 0.38: key: BRL=below recordable limit; on RRT 0.49: key: BRL=below recordable limit; on RRT 0.67: key: BRL=below recordable limit; on RRT 0.79: key: BRL=below recordable limit; on RRT 0.89: key: BRL=below recordable limit; on RRT 1.17: key: BRL=below recordable limit; on RRT 1.55: key: BRL=below recordable limit; on RRT 1.89: key: BRL=below recordable limit; on RRT 1.96: key: BRL=below recordable limit; on RRT 2.01: key: BRL=below recordable limit; on RRT 2.26: key: BRL=below recordable limit
Format: physicochemical
Set-up: RRT 1.77 / Total / RRT 1.66: unit not given here
Text: Identical preparations prepared as described in Example 4 were stored in parallel in vials having either a 13 mm WPS S2-F451 4432/50 Gray B2-40 Westar RS stopper (West Pharmaceutical Services) or a 13 mm S2-F451 RS D 777-1 RB2 40 stopper (Daikyo Seiko, Ltd) under various conditions. Each of the stoppers has a FluoroTec® fluorocarbon film; the Westar 4432/50 stopper is chlorobutyl rubber, while the RB2-40 RS D 777-1 stopper is bromobutyl rubber. The presence of accumulation of degradant was assessed for each of the configurations (HPLC Method A).

[1] = Control at Room Temperature, 1 hours
[2] = Control at Room Temperature, 4 hours
[3] = RS-D 777-1 B2 40 from Daikyo Seiko Ltd. at 40° C., 1 hours
[4] = RS-D 777-1 B2 40 from Daikyo Seiko Ltd. at 40° C., 4 hours
[5] = RS-D 777-1 B2 40 from Daikyo Seiko Ltd. at Room Temperature, 1 hours
[6] = RS-D 777-1 B2 40 from Daikyo Seiko Ltd. at Room Temperature, 4 hours
[7] = Westar RS stopper (West Pharmaceutical Services) at 40° C., 1 hours
[8] = Westar RS stopper (West Pharmaceutical Services) at 40° C., 4 hours
[9] = Westar RS stopper (West Pharmaceutical Services) at Room Temperature, 1 hours
[10] = Westar RS stopper (West Pharmaceutical Services) at Room Temperature, 4 hours

C[N+]1(CC2CC2)CC[C@]23c4c5ccc(O)c4O[C@H]2C(=O)CC[C@@]3(O)[C@H]1C5 (some centres unmarked) [MNTX, methylnaltrexone bromide]
0.05: RRT 1.77 [3] | RRT 1.77 [4] | RRT 1.77 [8]
0.06: RRT 1.66 [7] | Total [7] | RRT 1.66 [8] | Total [8] | RRT 1.66 [9] | Total [9] | RRT 1.66 [10] | Total [10]
BRL: RRT 0.38 (Control at 40° C., 1 hours) | RRT 0.49 (Control at 40° C., 1 hours) | RRT 0.67 (Control at 40° C., 1 hours) | RRT 0.79 (Control at 40° C., 1 hours) | RRT 0.89 (Control at 40° C., 1 hours) | RRT 1.17 (Control at 40° C., 1 hours) | RRT 1.55 (Control at 40° C., 1 hours) | RRT 1.77 (Control at 40° C., 1 hours) | RRT 1.89 (Control at 40° C., 1 hours) | RRT 1.96 (Control at 40° C., 1 hours) | RRT 2.01 (Control at 40° C., 1 hours) | RRT 2.26 (Control at 40° C., 1 hours) | RRT 0.38 (Control at 40° C., 4 hours) | RRT 0.49 (Control at 40° C., 4 hours) | RRT 0.67 (Control at 40° C., 4 hours) | RRT 0.79 (Control at 40° C., 4 hours) | RRT 0.89 (Control at 40° C., 4 hours) | RRT 1.17 (Control at 40° C., 4 hours) | RRT 1.55 (Control at 40° C., 4 hours) | RRT 1.77 (Control at 40° C., 4 hours) | RRT 1.89 (Control at 40° C., 4 hours) | RRT 1.96 (Control at 40° C., 4 hours) | RRT 2.01 (Control at 40° C., 4 hours) | RRT 2.26 (Control at 40° C., 4 hours) | RRT 0.38 [1] | RRT 0.49 [1] | RRT 0.67 [1] | RRT 0.79 [1] | RRT 0.89 [1] | RRT 1.17 [1] | RRT 1.55 [1] | RRT 1.77 [1] | RRT 1.89 [1] | RRT 1.96 [1] | RRT 2.01 [1] | RRT 2.26 [1] | RRT 0.38 [2] | RRT 0.49 [2] | RRT 0.67 [2] | RRT 0.79 [2] | RRT 0.89 [2] | RRT 1.17 [2] | RRT 1.55 [2] | RRT 1.77 [2] | RRT 1.89 [2] | RRT 1.96 [2] | RRT 2.01 [2] | RRT 2.26 [2] | RRT 0.38 (Initial) | RRT 0.49 (Initial) | RRT 0.67 (Initial) | RRT 0.79 (Initial) | RRT 0.89 (Initial) | RRT 1.17 (Initial) | RRT 1.55 (Initial) | RRT 1.77 (Initial) | RRT 1.89 (Initial) | RRT 1.96 (Initial) | RRT 2.01 (Initial) | RRT 2.26 (Initial) | RRT 0.38 [3] | RRT 0.49 [3] | RRT 0.67 [3] | RRT 0.79 [3] | RRT 0.89 [3] | RRT 1.17 [3] | RRT 1.55 [3] | RRT 1.89 [3] | RRT 1.96 [3] | RRT 2.01 [3] | RRT 2.26 [3] | RRT 0.38 [4] | RRT 0.49 [4] | RRT 0.67 [4] | RRT 0.79 [4] | RRT 0.89 [4] | RRT 1.17 [4] | RRT 1.55 [4] | RRT 1.89 [4] | RRT 1.96 [4] | RRT 2.01 [4] | RRT 2.26 [4] | RRT 0.38 [5] | RRT 0.49 [5] | RRT 0.67 [5] | RRT 0.79 [5] | RRT 0.89 [5] | RRT 1.17 [5] | RRT 1.55 [5] | RRT 1.77 [5] | RRT 1.89 [5] | RRT 1.96 [5] | RRT 2.01 [5] | RRT 2.26 [5] | RRT 0.38 [6] | RRT 0.49 [6] | RRT 0.67 [6] | RRT 0.79 [6] | RRT 0.89 [6] | RRT 1.17 [6] | RRT 1.55 [6] | RRT 1.77 [6] | RRT 1.89 [6] | RRT 1.96 [6] | RRT 2.01 [6] | RRT 2.26 [6] | RRT 0.38 [7] | RRT 0.49 [7] | RRT 0.67 [7] | RRT 0.79 [7] | RRT 0.89 [7] | RRT 1.17 [7] | RRT 1.55 [7] | RRT 1.77 [7] | RRT 1.89 [7] | RRT 1.96 [7] | RRT 2.01 [7] | RRT 2.26 [7] | RRT 0.38 [8] | RRT 0.49 [8] | RRT 0.67 [8] | RRT 0.79 [8] | RRT 0.89 [8] | RRT 1.17 [8] | RRT 1.55 [8] | RRT 1.89 [8] | RRT 1.96 [8] | RRT 2.01 [8] | RRT 2.26 [8] | RRT 0.38 [9] | RRT 0.49 [9] | RRT 0.67 [9] | RRT 0.79 [9] | RRT 0.89 [9] | RRT 1.17 [9] | RRT 1.55 [9] | RRT 1.77 [9] | RRT 1.89 [9] | RRT 1.96 [9] | RRT 2.01 [9] | RRT 2.26 [9] | RRT 0.38 [10] | RRT 0.49 [10] | RRT 0.67 [10] | RRT 0.79 [10] | RRT 0.89 [10] | RRT 1.17 [10] | RRT 1.55 [10] | RRT 1.77 [10] | RRT 1.89 [10] | RRT 1.96 [10] | RRT 2.01 [10] | RRT 2.26 [10]
20.2 mg: Initial (Initial) | Initial [6] | Initial [8]
20.3 mg: Initial (Control at 40° C., 1 hours) | Initial (Control at 40° C., 4 hours) | Initial [5] | Initial [9]
20.0 mg: Initial [2]
0.17: Total [3] | Total [4]
0.12: RRT 1.66 (Control at 40° C., 1 hours) | Total (Control at 40° C., 1 hours) | RRT 1.66 (Control at 40° C., 4 hours) | Total (Control at 40° C., 4 hours) | RRT 1.66 [1] | Total [1] | RRT 1.66 [2] | Total [2] | RRT 1.66 (Initial) | Total (Initial) | RRT 1.66 [3] | RRT 1.66 [4] | RRT 1.66 [5] | Total [5] | RRT 1.66 [6] | Total [6]
20.1 mg: Initial [1] | Initial [3] | Initial [7] | Initial [10]
